A short description of data set [1]: Hepatocyte intrinsic clearance and metabolite profile. Type of data set: in vitro ADME, cynomolgus monkey. The following applies: male, cynomolgus monkey, cryopreserved hepatocytes, 1 µM. As to the method: (§1) Fexinidazole was incubated with cryopreserved hepatocytes from male CD-1 mice, male Sprague Dawley rats, male beagle dogs, male cynomolgus monkeys, and from pooled white or African-American human donor samples (purchased commercially), at concentrations of 1 µM and 10 µM. […] The incubated samples were analyzed by LC-MS after extraction into acetonitrile.
(§2) A quality control analysis of fexinidazole was performed via 1H-NMR in DMSO and LC- […]
(§3) provided by the Swiss Tropical Institute (Basel, Switzerland).
(§4) Reagents and solvents were of analytical grade and obtained from Sigma-Aldrich (St. Louis, […]
(§5) Cryopreserved hepatocytes from the male CD1 mouse, lot CSI; male Sprague Dawley rat, lot LPL; male beagle dog, lot BWX; male cynomolgus monkey, lot EHH; and pooled human samples, lot MJI, were purchased from In Vitro Technologies Inc (Baltimore, Maryland, […]
(§6) 5.4. In vitro Incubations
(§7) On the day of the experiment a 10 mM stock solution of fexinidazole in DMSO was prepared and, within 3 hours, aliquots of this freshly prepared solution, after suitable dilution, were added to the incubation matrix, to reach fexinidazole final concentrations of 1 and 10 µM. The final percentage of DMSO was 0.01% in the incubation samples for the […]
(§8) On the day of experiment, the cryopreserved hepatocytes were thawed following the detailed instructions provided by the supplier.
(§9) The number of viable cells was determined using a Trypan Blue exclusion method.
(§10) 5.4.1. Intrinsic Clearance Study […]
(§11) µM with mouse, rat, dog, monkey and human hepatocytes (300000 cells/mL for the mouse and 1 million cells/mL for the other species) in a final incubation volume of 0.75 mL […]
(§12) Incubations were performed in duplicate in a 48-well plate under shaking. Sampling was performed using an automatic liquid handling system (Multiprobe II EX, Packard). At 0, 1, 5, 10, 15, 20, 30, 60 and 120 minutes, 50 µL aliquots of the incubates were taken, then 80 µL of ice-cold acetonitrile and 20 µL of 1 µM warfarin in acetonitrile (internal standard) were added, and samples centrifuged at 2000 rpm for 20 min. The supernatant was analyzed by LC-MS/MS. […]
(§13) the medium alone at t = 0 and 120 minutes.
(§14) For the determination of phase I and phase II activity of hepatocytes, 7-ethoxycoumarin (7-EC) 1 µM, and 7-hydroxycoumarin (7-HC) 30 µM were used as positive controls and incubated under the same conditions as fexinidazole. Aliquots of incubates were taken at 0, 10, 20, 30, 60 and 120 minutes and processed as fexinidazole samples.
(§15) 5.4.2. Metabolite Profile Study
(§16) For metabolite profiling, fexinidazole was incubated at a concentration of 10 µM with mouse, rat, dog, monkey and human hepatocytes (300000 cells/mL for the mouse and 1 million cells/mL for the other species) in a final incubation volume of 2 mL Leibovitz L-15 […]
(§17) Aliquots of the incubation samples were taken at t = 0, 30 and 120 minutes; the metabolism was stopped by the addition of an equal volume of cold acetonitrile and the samples centrifuged at 1500 rpm for 20 min. The supernatant was stored at -20°C until analysis. Control incubations were performed with the compound in the medium alone […]
(§18) 5.5. Analysis of Samples for Intrinsic Clearance Determination
(§19) The analysis of the samples for intrinsic clearance determination was performed by an LC-MS/MS method, using the following conditions:
(§20) HPLC Equipment and Conditions
(§21) HPLC system Agilent 1100 binary pump (Agilent, Palo Alto, USA)
(§22) Autosampler CTC Pal (Alfatech, San Jose, USA)
(§23) Analytical column Guard Column SB-C8 4.6 x 12.5 mm, 5 µm (Zorbax)
(§24) Column temperature ambient
(§25) Mobile phase A 10 mM ammonium formate pH 4.0: acetonitrile (95:5, v:v)
(§26) Mobile phase B 10 mM ammonium formate pH 4.0: acetonitrile (5:95, v:v) […]
(§27) Gradient conditions Step Total time (min) flow (µL/min) %A % B […]
(§28) MS Equipment and Conditions
(§29) Mass spectrometer API 4000 Triple Quadrupole (MDS-Sciex, Toronto, […]
(§30) Source Turbo Ion Spray (TIS)
(§31) Ion mode Positive for fexinidazole and 7-EC.
(§32) Negative for 7-HC, 7-HC sulphate and 7-HC glucuronide.

Assay in data set [2]: as above
The data set is classed as in vitro ADME, human. The following applies: human, cryopreserved pooled hepatocytes, 1 µM. The protocol:
as §1, §2, §3, §4, §5, §6, §7, §8, §9, §10, §11, §12, §13, §14, §15, §16, §17, §18, §19, §20, §21, §22, §23, §24, §25, §26, §27, §28, §29, §30, §31, §32

A further data set can be described thus: in vivo. As to conditions: both sexes, beagle, dog, po. As to the method:
In the dog repeated-dose toxicokinetic study, fexinidazole was given orally by gavage once a day for 28 days to five (control and high dose) or three (low and mid dose) beagle dogs/sex/dose at the doses of 0 (control group), 50, 200, or 800 mg/kg/day. The control group received the vehicle alone (same as above). Systemic exposure to fexinidazole and of its sulfoxide and sulfone metabolites was evaluated on days 1, 14 and 28 in the same animals used for the toxicological study. Samples were taken at predose, and 30 min, 1, 2, 4, 8 and 24 h after dosing on days 1, 14, and 28, and in addition at 48 and 72 h after treatment on day 28.

Data set [3] in a line: Preliminary embryo-foetal and early postnatal development study. Type of data set: in vivo, rat. The following applies: pregnant rats. The protocol:
In the rat study, fexinidazole was administered orally by gavage once a day from day 6 to day 17 of gestation or from day 6 of gestation to day 7 of lactation to 10 mated rat Crl:CD (SD)IGS BR rats[…]/group at doses of 50, 200, or 800 mg/kg/day. A control group received the vehicle alone (5% Tween 80/0.5% methocel).

The subject of data set [4] is bone marrow polychromatic erythrocytes. Put plainly: In vivo bone marrow micronucleus test. Further details: species or system mouse. The protocol:
Groups of six young adult male Crl:CD-1 (ICR) mice were treated with fexinidazole at two oral doses of 0, 500, 1000, or 2000 mg/kg given 24 h apart, and bone marrows were harvested 24 h after the second dose. Slides of bone marrow cells were prepared, Giemsa stained, and 2000 polychromatic erythrocytes per animal were scored for micronuclei.

Data set [5] is described as follows: Respiratory safety (plethysmography). As to conditions: single oral dose.
Procedure: Respiratory parameters were assessed in the rat [42]. Groups of eight male rats (Crl:CD(SD)BR), aged about 8 weeks on the day of dosing, were administered doses of 100, 300, or 1000 mg/kg of fexinidazole by oral gavage. A predetermined standard set of respiratory parameters was acquired continuously from individual animals housed in plethysmographic chambers. […] After treatment, values were extracted every 30 min up to 4 h. Body weights were recorded on the day of treatment for calculation of dose volumes and for calculation of tidal and minute volumes per kg of body weight.
On the day of dosing, animals were placed in individual plethysmographic chambers. After
an acclimation period of at least 1 hour, and once respiratory parameters had stabilized,
recording of respiratory signals was started and basal data were recorded for at least 30
minutes. Animals were taken from the chambers, orally dosed and placed again in the
chambers for at least 4 hours. […]
the time point was not extracted. Basal values were calculated as the mean of values […]
were extracted every 30 minutes up to 4 hours. The following parameters were calculated […]
− Minute volume (MV, mL/kg/min calculated as TV*f)
− Enhanced Pause (Penh, calculated as ((ET/RT)-1)*(PEF/PIF))
Body weight (grams) was recorded on the day of treatment for calculation of dose volumes […]

Read-outs that look alike come from different tables or passages of the source.

The term half-life denotes the time in which the quantity being followed falls by half. One may read the NOAEL as the highest tested level that showed no adverse finding.

For the compound `CSc1ccc(OCc2ncc([N+](=O)[O-])n2C)cc1` [Fexinidazole, 1-methyl-2-((p-(methylthio)phenoxy)methyl)-5-nitroimidazole], the CLint scaled at 1 µM in data set [1] (read-out: CLint in vitro) turned out to be 390 L/h/kg; in data set [2] (read-out: CLint in vitro), 7.44 L/h/kg. In addition, the half-life at 1 µM in data set [1] (cynomolgus) is 0.6 min; in data set [2], 13 min. For the same compound, the hepatocyte CLint at 1 µM amounted to 1190 µL/min/1e6 cells in data set [1] (cynomolgus, read-out: CLint in vitro) and 51.9 µL/min/1e6 cells in data set [2] (read-out: CLint in vitro). In “in vivo”, this compound returned an NOAEL at 28 days of 200 mg/kg/day. In addition, the “effects on embryo-foetal and early postnatal development” value in data set [3] is “no adverse effects on embryos/foetuses, parturition, and neonates”. In addition, the “Micronucleated PCE/1000” value in data set [4] (500 mg/kg po ×2) came to 1.4; in data set [4] (1000 mg/kg po ×2) it was 1.1; in data set [4] (2000 mg/kg po ×2) it was 1.8. Besides, the PCE/NCE is 0.82 in data set [4] (500 mg/kg po ×2), 0.75 in data set [4] (1000 mg/kg po ×2) and 0.89 in data set [4] (2000 mg/kg po ×2). Besides, the “in vivo micronucleus test result” value in data set [4] (oral doses up to 2 g/kg) was “confirmed the lack of clastogenicity”. The “NOEL on respiratory parameters” value in data set [5] was 1000 mg/kg.

Source of the values: publication PMC3006138, “Fexinidazole – A New Oral Nitroimidazole Drug Candidate Entering Clinical Development for the Treatment of Sleeping Sickness” (PLoS Neglected Tropical Diseases, 2010).
